Values after ≈ are worked out from the molar mass of the structure shown.
Columns and labels:
Plasmodium falciparum [1] = assay: Antiplasmodial activity against multidrug-resistant Plasmodium falciparum K1 by SYBR Green-based method; assay type: functional, organism-based
Plasmodium falciparum [2] = assay: Antiplasmodial activity against Plasmodium falciparum NF54 by SYBR Green-based method; assay type: functional, organism-based
[3] = Octanol-water partition coefficient, log D by shake-flask method; assay type: physicochemical
Liver microsome = assay: Clearance in human liver microsomes at 1 uM after 2 to 30 mins by LC-MS/MS analysis; assay type: ADME
hERG (KCNH2) = hERG (KCNH2) (Homo sapiens, UniProt Q12809); assay: Inhibition of human ERG at 11.1 uM
[4] = Clearance in rat hepatocytes assessed per million cells at 1 uM after 5 to 120 mins by LC-MS/MS analysis; assay type: ADME, cell-based, Hepatocyte; details: read-out: CLH
[5] = Solubility of the compound […]; assay type: physicochemical
[6] = Protein binding in human plasma; assay type: ADME, cell-free
[7] = Selectivity index, ratio of IC50 for human A549 cells to IC50 for Plasmodium falciparum; assay type: toxicity, cell-based; details: read-out: Ratio IC50
THP-1 = assay: Cytotoxicity against human THP1 cells; assay type: cell-based

hERG (KCNH2), sequence (Q12809 whole entry): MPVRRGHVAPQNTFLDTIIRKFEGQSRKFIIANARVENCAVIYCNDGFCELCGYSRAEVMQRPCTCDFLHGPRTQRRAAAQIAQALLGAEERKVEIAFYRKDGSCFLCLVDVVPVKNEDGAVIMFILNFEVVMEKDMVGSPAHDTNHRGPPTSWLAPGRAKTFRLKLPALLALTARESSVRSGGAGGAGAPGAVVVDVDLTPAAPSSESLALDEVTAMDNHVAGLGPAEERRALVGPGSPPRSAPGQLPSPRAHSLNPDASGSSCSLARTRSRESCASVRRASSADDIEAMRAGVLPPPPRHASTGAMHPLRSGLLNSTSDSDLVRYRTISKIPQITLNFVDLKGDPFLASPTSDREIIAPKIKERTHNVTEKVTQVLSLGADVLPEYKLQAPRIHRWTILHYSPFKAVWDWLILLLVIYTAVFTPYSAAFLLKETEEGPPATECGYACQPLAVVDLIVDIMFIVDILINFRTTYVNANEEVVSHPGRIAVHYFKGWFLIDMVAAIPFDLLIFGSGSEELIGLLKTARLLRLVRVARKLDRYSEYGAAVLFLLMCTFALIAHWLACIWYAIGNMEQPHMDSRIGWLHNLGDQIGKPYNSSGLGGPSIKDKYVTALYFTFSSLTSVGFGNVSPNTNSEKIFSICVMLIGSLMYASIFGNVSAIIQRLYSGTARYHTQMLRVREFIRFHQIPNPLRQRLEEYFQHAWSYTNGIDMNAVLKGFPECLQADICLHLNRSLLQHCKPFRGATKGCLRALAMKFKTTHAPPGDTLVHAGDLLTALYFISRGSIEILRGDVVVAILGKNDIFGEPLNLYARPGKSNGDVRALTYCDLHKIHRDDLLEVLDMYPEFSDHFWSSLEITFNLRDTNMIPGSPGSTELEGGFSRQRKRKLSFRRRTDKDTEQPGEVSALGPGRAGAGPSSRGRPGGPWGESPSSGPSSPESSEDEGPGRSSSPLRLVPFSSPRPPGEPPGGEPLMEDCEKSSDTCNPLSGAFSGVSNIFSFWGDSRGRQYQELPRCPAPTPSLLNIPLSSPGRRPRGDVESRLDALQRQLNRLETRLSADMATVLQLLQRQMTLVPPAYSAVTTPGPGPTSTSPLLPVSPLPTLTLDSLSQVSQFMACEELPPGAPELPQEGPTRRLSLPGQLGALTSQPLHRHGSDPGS

| Compound | IC50 (Plasmodium falciparum [1]) [nM] | IC50 (Plasmodium falciparum [2]) [nM] | logD [3] | CLH (Liver microsome) [µL/min] | inhibition at 11.1 µM (hERG (KCNH2)) [%] | hepatocyte CLint at 1 µM [4] [µL/min/1e6 cells] | solubility [5] [µM] | fraction unbound [6] | selectivity ratio [7] | Activity (THP-1) |
| --- | --- | --- | --- | --- | --- | --- | --- | --- | --- | --- |
| Cc1ccc(CNCC2CC2)c(O)c1 | 520 | 1400 |  |  |  |  |  |  |  |  |
| CCNCc1ccc(C)cc1O | > 2000 | > 2000 |  |  |  |  |  |  |  |  |
| Cc1ccc(CNC2CCCCC2)c(O)c1 | 130 | 730 |  |  |  |  |  |  |  |  |
| Cc1ccc(CNC2C3CC4CC(C3)CC2C4)c(O)c1 (stereo not drawn) | 15 | 43 |  |  |  |  |  |  |  |  |
| Cc1ccc(CNCC23CC4CC(CC(C4)C2)C3)c(O)c1 | < 4 | 6 |  |  |  |  |  |  |  |  |
| COc1ccc(CNCC23CC4CC(CC(C4)C2)C3)c(O)c1 | 6 | 22 | 2.7 | 59 | 46.2 | 391 | 446 (≈ 134 µg/mL) | 0.044 |  |  |
| Oc1cccc(F)c1CNCC12CC3CC(CC(C3)C1)C2 | 8 | 28 |  |  |  |  |  |  |  |  |
| COc1cccc(F)c1CNCC12CC3CC(CC(C3)C1)C2 | 1100 | > 2000 |  |  |  |  |  |  |  |  |
| c1ccc(CNCC23CC4CC(CC(C4)C2)C3)cc1 | > 2000 | > 2000 |  |  |  |  |  |  |  |  |
| CN(Cc1ccccc1O)CC12CC3CC(CC(C3)C1)C2 | 270 | > 500 |  |  |  |  |  |  |  |  |
| O=C(NCC12CC3CC(CC(C3)C1)C2)c1ccccc1O | 410 | > 500 |  |  |  |  |  |  |  |  |
| Oc1ccc(Cl)cc1CNCC12CC3CC(CC(C3)C1)C2 | < 4 | 5 | 4 | 80 | 26.8 | 208 | 43 (≈ 13.2 µg/mL) | 0.004 | 5290 | Non-toxic |
| Oc1ccc(Br)cc1CNCC12CC3CC(CC(C3)C1)C2 | < 4 | 7 |  |  |  |  |  |  | 4780 | Non-toxic |
| Cc1ccc(O)c(CNCC23CC4CC(CC(C4)C2)C3)c1 | 15 | 43 | 3.3 | 93 | 28.3 | 134 | 97 (≈ 27.7 µg/mL) | 0.031 | > 1160 | Non-toxic |
| Oc1ccc(C(F)(F)F)cc1CNCC12CC3CC(CC(C3)C1)C2 | 12 | 100 |  |  |  |  |  |  | > 500 | Non-toxic |
| CC(NCC12CC3CC(CC(C3)C1)C2)c1cc(Br)ccc1O (stereo not drawn) | 12 | 41 |  |  |  |  |  |  | > 1220 | Non-toxic |
| Cc1ccc(O)c(CNCC23CC4CC(CC(C4)C2)C3)n1 | 7.7 | 32 | 3 | 13 | 7.9 | 49 | 237 (≈ 67.9 µg/mL) | 0.122 | > 1560 | Non-toxic |
| Oc1cc(Cl)cc(Cl)c1CNCC12CC3CC(CC(C3)C1)C2 | < 4 | 8 |  |  |  |  |  |  | > 6250 | Non-toxic |
| Oc1c(F)cc(Br)cc1CNCC12CC3CC(CC(C3)C1)C2 | < 4 | 14 | 3.7 | 92 | 9.2 | 162 | 4 (≈ 1.47 µg/mL) | 0.005 | > 3330 | Non-toxic |
| Oc1ccccc1CNCC12CC3CC(CC(C3)C1)C2 | 10 | 72 |  |  |  |  |  |  |  |  |
| C[C@@H]1CC[C@H]2[C@@H](C)C(=O)O[C@@H]3O[C@@]4(C)CC[C@@H]1[C@]32OO4 [ARTEMISININ] |  | 7 |  |  |  |  |  |  |  |  |
| O=C1C(O)=C([C@H]2CC[C@H](c3ccc(Cl)cc3)CC2)C(=O)c2ccccc21 [ATOVAQUONE] | 2.3 |  |  |  |  |  |  |  |  |  |

Source: ChEMBL document CHEMBL3392977, “Synthesis and biological evaluation of adamantane-based aminophenols as a novel class of antiplasmodial agents” (Bioorg Med Chem Lett, 2015)
